Target: T1, p101/p110γ protein (PI3Kγ) (Homo sapiens, UniProt P48736)
T1 construct: HA; made in house; host or cells: Spodoptera frugiperda (Sf9) cells, baculovirus coinfection
Assay: PI3Kγ In Vitro Kinase Assay
Format: biochemical
Conditions: purified recombinant p101/p110γ with G protein β1/γ2 subunits; 20 μM ATP, 25 μM PIP2; 20 minutes at room temperature; radioactive PIP3 readout
Protocol: Spodtera frugiperda cells, grown in ESF921 media, were coinfected with baculovirus expressing a glu-tagged […] and baculovirus expressing an HA-tagged p110γ, at a 3:1 ratio of p110 baculovirus to p110γ baculovirus. Sf9 cells were grown to 1×10^7 total cells/mL in 10L bioreactors and harvested 48-72 hours post infection. Samples of infected cells were then tested for expression of p101/p110γ PI3 kinase by immunoprecipitation and Western Blot analysis methods (see below).
To purify PI3Kγ, 4 volumes of room temperature hypotonic lysis buffer (1 mM MgCl2, 1 mM DTT, 5 mM EGTA, 1 mM Pefabloc, 0.5 μM aprotinin, […], 2 μM pepstatin, 5 μM E64, pH 8) per gram of cell paste, was poured onto frozen cell pellets with stirring, then lysed in a nitrogen “bomb” at 400 psi (599HC T316, Parr Instrument Co, Moline, Ill.). NaCl was added to 150 mM, and sodium cholate was added to 1% and mixed for another 45 minutes. The lysates were clarified by centrifugation for 25 minutes at 14,000 rpm. The lysates were then loaded over anti-glu-linked Protein-G Sepaharose beads (Covance Research Products, Richmond, Calif.) using 20 mL resin/50 g cell paste. The column was washed with 15 volumes of wash buffer (1 mM DTT, 0.2 mM EGTA, 1 mM Pefabloc, 0.5 μM aprotinin, 5 μM leupeptin, 2 μM pepstatin, 5 μM E64, 150 mM NaCl, 1% sodium cholate, pH 8). PI3Kγ was eluted with 6 column volumes of wash buffer that contain 100 μg/mL of a peptide that competes for binding of the glu tag. The column fractions with the eluted protein (determined by taking OD280 readings) were collected and dialyzed in 0.2 mM EGTA, 1 mM DTT, 1 mM Pefabloc, 5 μM leupeptin, 0.5% sodium cholate, 150 mM NaCl, and 50% glycerol, pH 8. The fractions were stored at −80° C. until further use.
Spodtera frugiperda cells were coinfected with baculovirus expressing a glu-tagged G protein β1 and baculovirus expressing a […] at a 1:1 ratio of glu-tagged G protein β1 baculovirus to G protein β2 baculovirus. Sf9 cells are grown in 10 L bioreactors and harvested 48-72 hours post infection. Samples of infected cells were tested for G protein β1/β2 expression by Western Blot analysis, as described below. Cell lysates were homogenized and loaded onto a column of glu-tagged beads as in Biological Example 1 and competed off the column with a glu peptide as described in Biological Example 1.
The inhibitory properties of the compounds in Table 1 were assayed in an in vitro PI3K assay. In a 96-well polypropylene plate, each well was spotted with 2 μL of 50 times the desired final concentration of compound in DMSO. Purified recombinant p101/p110γ protein (0.03 μg; ˜2.7 nM) and G protein β1/γ2 subunits (0.09 μg; −57.7 nM) for each reaction was combined in the assay buffer (30 mM HEPES, 100 mM NaCl, 1 mM EGTA, and 1 mM DTT). ATP and [γ-^32P-ATP] (0.09 μCi) were added to this mixture so that the final ATP concentration in the reaction was 20 μM. Lipid micelles were formed by sonicating phosphatidylinositol-4,5-diphosphate (PIP2), phosphatidylethanolamine (PE), and Na-cholate in the assay buffer for 10 minutes, adding MgCL2 and incubating on ice for 20 minutes, for final concentrations of 25 μM PIP2, 300 μM PE, 0.02% Na-cholate, and 10 mM MgCl2 in the reaction. The reactions were started by adding equal volumes lipid and enzyme mixture in a total volume of 50 μL, allowed to run for 20 minutes at room temperature, and stopped with 100 μL 75 mM H3PO4. The lipid product was transferred to a glass fiber filter plate and washed with 75 mM H3PO4 several times. The presence of radioactive lipid product (PIP3) was measured by adding Wallac Optiphase mix to each well and counting in a Wallac 1450 Trilux plate reader (PerkinElmer Life Sciences Inc., Boston, Mass. 02118). The IC50 for each compound tested is reported in μM in Table 1: […]

T1 sequence (P48736 whole entry, species assumed): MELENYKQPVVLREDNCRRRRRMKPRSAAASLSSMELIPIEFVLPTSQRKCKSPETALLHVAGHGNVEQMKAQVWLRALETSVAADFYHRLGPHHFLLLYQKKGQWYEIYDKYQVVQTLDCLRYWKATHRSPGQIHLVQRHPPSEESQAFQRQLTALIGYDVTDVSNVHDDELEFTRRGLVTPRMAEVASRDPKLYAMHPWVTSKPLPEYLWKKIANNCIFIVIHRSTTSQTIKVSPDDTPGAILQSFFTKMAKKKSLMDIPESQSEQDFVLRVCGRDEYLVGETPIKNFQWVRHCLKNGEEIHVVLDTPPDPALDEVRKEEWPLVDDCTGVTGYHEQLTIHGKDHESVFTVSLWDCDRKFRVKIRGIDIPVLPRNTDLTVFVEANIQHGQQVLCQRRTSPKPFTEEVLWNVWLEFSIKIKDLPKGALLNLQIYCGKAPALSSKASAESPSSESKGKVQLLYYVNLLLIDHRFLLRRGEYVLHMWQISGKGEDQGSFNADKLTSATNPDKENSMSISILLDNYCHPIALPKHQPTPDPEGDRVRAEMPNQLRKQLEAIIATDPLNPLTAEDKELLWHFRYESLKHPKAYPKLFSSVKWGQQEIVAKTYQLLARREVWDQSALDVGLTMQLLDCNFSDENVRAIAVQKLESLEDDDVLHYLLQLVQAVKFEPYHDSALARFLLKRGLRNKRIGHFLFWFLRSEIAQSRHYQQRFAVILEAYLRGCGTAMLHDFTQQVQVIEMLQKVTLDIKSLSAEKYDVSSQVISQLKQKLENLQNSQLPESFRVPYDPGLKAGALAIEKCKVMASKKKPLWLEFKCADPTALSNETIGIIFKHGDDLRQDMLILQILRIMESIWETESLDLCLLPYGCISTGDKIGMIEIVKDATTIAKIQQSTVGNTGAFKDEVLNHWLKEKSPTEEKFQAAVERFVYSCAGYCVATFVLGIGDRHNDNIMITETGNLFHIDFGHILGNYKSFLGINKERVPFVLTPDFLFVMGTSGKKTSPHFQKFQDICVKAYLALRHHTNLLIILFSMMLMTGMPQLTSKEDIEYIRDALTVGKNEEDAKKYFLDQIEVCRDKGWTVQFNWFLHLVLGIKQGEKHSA
T1 sequence (Q8WYR1 whole entry partner, species assumed): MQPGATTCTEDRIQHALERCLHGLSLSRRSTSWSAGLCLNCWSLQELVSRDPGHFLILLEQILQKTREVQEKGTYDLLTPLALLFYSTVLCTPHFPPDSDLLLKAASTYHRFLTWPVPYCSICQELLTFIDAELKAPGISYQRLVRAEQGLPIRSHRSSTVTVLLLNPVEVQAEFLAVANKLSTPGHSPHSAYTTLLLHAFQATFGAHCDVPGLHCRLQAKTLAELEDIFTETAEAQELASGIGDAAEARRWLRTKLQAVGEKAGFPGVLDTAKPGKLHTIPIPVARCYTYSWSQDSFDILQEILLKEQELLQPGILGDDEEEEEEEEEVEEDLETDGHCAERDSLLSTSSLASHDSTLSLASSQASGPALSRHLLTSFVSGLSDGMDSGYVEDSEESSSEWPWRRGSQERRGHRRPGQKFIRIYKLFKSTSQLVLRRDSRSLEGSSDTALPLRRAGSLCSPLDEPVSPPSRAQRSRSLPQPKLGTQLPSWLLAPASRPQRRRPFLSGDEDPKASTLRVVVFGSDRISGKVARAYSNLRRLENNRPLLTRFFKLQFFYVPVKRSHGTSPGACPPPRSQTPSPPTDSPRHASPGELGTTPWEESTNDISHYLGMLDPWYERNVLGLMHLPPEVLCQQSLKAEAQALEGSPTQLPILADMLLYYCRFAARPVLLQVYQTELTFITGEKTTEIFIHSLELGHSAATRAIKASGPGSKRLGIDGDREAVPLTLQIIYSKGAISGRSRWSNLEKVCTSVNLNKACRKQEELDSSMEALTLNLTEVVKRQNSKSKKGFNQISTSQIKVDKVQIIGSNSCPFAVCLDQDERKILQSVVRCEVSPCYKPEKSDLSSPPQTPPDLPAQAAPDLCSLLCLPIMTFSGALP

O=C1NC(=S)SC1=Cc1ccc2c(c1)N(C(=O)c1ccccc1)CCO2 [Example 1, 5-[4-(1-Phenyl-methanoyl)-3,4-dihydro-2H-benzo[1,4]oxazine-6-ylmethylene]-2-thioxo-thiazolidin-4-one]
IC50: 56 nM

O=C1NC(=S)SC1=Cc1ccc2c(c1)N(C(=O)C1CCCCC1)CCO2 [Example 2, 5-[4-(1-Cyclohexyl-methanoyl)-3,4-dihydro-2H-benzo[1,4]oxazine-6-ylmethylene]-2-thioxo-thiazolidin-4-one]
IC50: 21.7 nM

O=C1NC(=S)SC1=Cc1ccc2c(c1)N(S(=O)(=O)c1ccccc1)CCO2 [Example 3, 5-[(4-benzenesulfonyl)-3,4-dihydro-2H-benzo[1,4]oxazine-6-ylmethylene)-2-thioxo-thiazolidin-4-one]
IC50: 1130 nM

CC(C)(C)c1cc(CN2CCOc3ccc(C=C4SC(=S)NC4=O)cc32)cc(C(C)(C)C)c1 [Example 5, 5[4-(3,5-Di-tert-butyl-benzyl)-3,4-dihydro-2H-benzo[1,4]oxazine-6-ylmethylene]-2-thioxo-thiazolidin-4-one]
IC50: 1870 nM

COc1cc(CN2CCCOc3ccc(C=C4SC(=S)NC4=O)cc32)cc(OC)c1 [Example 6, 5-[9-(3,5-Dimethoxy-benzyl)-6,7,8,9-tetrahydro-5-oxa-9-aza-benzocyclohepten-2-ylmethylene]-2-thioxo-thiazolidin-4-one]
IC50: 151 nM

Cc1cc(C)cc(CN2CCCOc3ccc(C=C4SC(=S)NC4=O)cc32)c1 [Example 7, 5-[9-(3,5-Dimethyl-benzyl)-6,7,8,9-tetrahydro-5-oxa-9-aza-benzocyclohepten-2-ylmethylene]-2-thioxo-thiazolidin-4-one]
IC50: 780 nM

CC1COc2ccc(C=C3SC(=S)NC3=O)cc2N1C(=O)c1ccccc1 (centres unmarked) [Example 8, 5-[3-Methyl-4-(-phenyl-methanoyl)-3,4-dihydro-2H-benzo[1,4]oxazine-6-ylmethylene]-2-thioxo-thiazolidin-4-one]
IC50: 2180 nM

Cc1cc(C)cc(CN2c3cc(C=C4SC(=S)NC4=O)ccc3OCC2C)c1 (centres unmarked) [Example 9, 5-[4-(3,5-Dimethyl-benzyl)-3-methyl-3,4-dihydro-2H-benzo[1,4]oxazine-6-ylmethylene]-2-thioxo-thiazolidin-4-one]
IC50: 2590 nM

O=C1NC(=S)SC1=Cc1ccc2c(c1)NCCO2 [Example 10, 5-(3,4-dihydro-2H-benzo[1,4]oxazine-6-ylmethylene)-2-thioxo-thiazolidin-4-one]
IC50: 160 nM

O=C1NC(=S)SC1=Cc1ccc2c(c1)N(C(=O)Cc1ccc3ccccc3c1)CCO2 [Example 11, 5-[4-(2-Naphthalen-2-yl-acetyl)-3,4-dihydro-2H-benzo[1,4]oxazine-6-ylmethylene]-2-thioxo-thiazolidin-4-one]
IC50: 53 nM

O=C1NC(=S)SC1=Cc1ccc2c(c1)N(C(=O)c1ccncc1)CCO2 [Example 12]
IC50: 410 nM

O=C1NC(=S)SC1=Cc1ccc2c(c1)N(C(=O)c1cccnc1)CCO2 [Example 13]
IC50: 410 nM

COc1cc(OC)cc(C(=O)N2CCOc3ccc(C=C4SC(=S)NC4=O)cc32)c1 [Example 14]
IC50: 1130 nM

O=C1NC(=S)SC1=Cc1ccc2c(c1)N(C(=O)Cc1ccc(Cl)c(Cl)c1)CCO2 [Example 15]
IC50: 7.3 nM

O=C1NC(=S)SC1=Cc1ccc2c(c1)N(CCc1ccccc1)CCCO2 [Example 16, 5-(9-Phenethyl-6,7,8,9-tetrahydro-5-oxa-9-aza-benzocyclohepten-2-ylmethylene)-2-thioxo-thiazolidin-4-one]
IC50: 80 nM

O=C1NC(=S)SC1=Cc1ccc2c(c1)N(C(=O)Oc1ccccc1)CCO2 [Example 17, 6-(4-Oxo-2-thioxo-thiazolidin-5-ylidenemethyl)-2,3-dihydro-1,4-benzoxazine-4-carboxylic acid phenyl ester]
IC50: 3 nM

Cc1ccc(OC(=O)N2CCOc3ccc(C=C4SC(=S)NC4=O)cc32)cc1 [Example 18, 6-(4-Oxo-2-thioxo-thiazolidin-5-ylidenemethyl)-2,3-dihydro-1,4-benzoxazine-4-carboxylic acid p-tolyl ester]
IC50: 4 nM

O=C1NC(=S)SC1=Cc1ccc2c(c1)N(C(=O)Cc1ccccc1)CCO2 [Example 19, 5-(4-Phenylacetyl-3,4-dihydro-2H-1,4-benzoxazin-6-ylmethylene)-2-thioxo-thiazolidin-4-one]
IC50: 55 nM

COc1ccc(CC(=O)N2CCOc3ccc(C=C4SC(=S)NC4=O)cc32)cc1OC [Example 20, 5-{4-[2-(3,4-Dimethoxy-phenyl)-acetyl]-3,4-dihydro-2H-1,4-benzoxazin-6-ylmethylene}-2-thioxo-thiazolidin-4-one]
IC50: 73 nM

COc1cccc(C(=O)N2CCOc3ccc(C=C4SC(=S)NC4=O)cc32)c1 [Example 21, 5-[4-(3-Methoxy-benzoyl)-3,4-dihydro-2H-1,4-benzoxazin-6-ylmethylene]-2-thioxo-thiazolidin-4-one]
IC50: 100 nM

COc1cc(C(=O)N2CCOc3ccc(C=C4SC(=S)NC4=O)cc32)cc(OC)c1OC [Example 22, 2-Thioxo-5-[4-(3,4,5-trimethoxy-benzoyl)-3,4-dihydro-2H-1,4-benzoxazin-6-ylmethylene]-thiazolidin-4-one]
IC50: 4000 nM

Cc1cccc(C(=O)N2CCOc3ccc(C=C4SC(=S)NC4=O)cc32)c1 [Example 23, 5-[4-(3-Methyl-benzoyl)-3,4-dihydro-2H-1,4-benzoxazin-6-ylmethylene]-2-thioxo-thiazolidin-4-one]
IC50: 101 nM

O=C1NC(=S)SC1=Cc1ccc2c(c1)N(C(=O)c1ccc(-c3ccccc3)cc1)CCO2 [Example 24, 5-[4-(Biphenyl-4-carbonyl)-3,4-dihydro-2H-1,4-benzoxazin-6-ylmethylene]-2-thioxo-thiazolidin-4-one]
IC50: 560 nM

CC(C)(C)c1ccc(C(=O)N2CCOc3ccc(C=C4SC(=S)NC4=O)cc32)cc1 [Example 25, 5-[4-(4-tert-Butyl-benzoyl)-3,4-dihydro-2H-1,4-benzoxazin-6-ylmethylene]-2-thioxo-thiazolidin-4-one]
IC50: 245 nM

CCc1ccc(C(=O)N2CCOc3ccc(C=C4SC(=S)NC4=O)cc32)cc1 [Example 26, 5-[4-(4-Ethyl-benzoyl)-3,4-dihydro-2H-1,4-benzoxazin-6-ylmethylene]-2-thioxo-thiazolidin-4-one]
IC50: 545 nM

CCCCCCc1ccc(C(=O)N2CCOc3ccc(C=C4SC(=S)NC4=O)cc32)cc1 [Example 27, 5-[4-(4-Hexyl-benzoyl)-3,4-dihydro-2H-1,4-benzoxazin-6-ylmethylene]-2-thioxo-thiazolidin-4-one]
IC50: 2020 nM

N#Cc1ccc(C(=O)N2CCOc3ccc(C=C4SC(=S)NC4=O)cc32)cc1 [Example 28, 4-[6-(4-Oxo-2-thioxo-thiazolidin-5-ylidenemethyl)-2,3-dihydro-1,4-benzoxazine-4-carbonyl]-benzonitrile]
IC50: 385 nM

O=C1NC(=S)SC1=Cc1ccc2c(c1)N(C(=O)c1ccc3ccccc3c1)CCO2 [Example 29, 5-[4-(Naphthalene-2-carbonyl)-3,4-dihydro-2H-1,4-benzoxazin-6-ylmethylene]-2-thioxo-thiazolidin-4-one]
IC50: 570 nM

CCC(C(=O)N1CCOc2ccc(C=C3SC(=S)NC3=O)cc21)c1ccccc1 (centres unmarked) [Example 30, 5-[4-(2-Phenyl-butyryl)-3,4-dihydro-2H-1,4-benzoxazin-6-ylmethylene]-2-thioxo-thiazolidin-4-one]
IC50: 735 nM
